Data from patent US8846653B2, “Delta-tocotrienol treatment and prevention of pancreatic cancer” (University of South Florida, priority 2006, dated 2014).

Assays:
Format in all cases: cell-based, human
[1] = test system: SW1990 pancreatic cancer cells; assay: MTS assay of SW1990 cultures, single 50 μM dose; conditions: SW1990, 50 μM
Outline: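 MTS-based viability was measured 24, 48 or 72 h after a single 50 μM treatment; the agents were α/β/γ/δ-tocotrienol, α/β-tocopherol, tocopherol succinate, geranylgeraniol or succinic acid. The cells were SW1990, cultured in 10% FBS DMEM. Vehicle (ethanol-extracted olive oil) cultures ran in parallel as reference.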

BXPC3 cells = assay: MTT assay of BXPC3 cultures, single 50 μM dose; design: MTT assay result, run 1 / MTT assay result, run 2 / MTT assay result, run 3 / MTT assay result, run 4 / MTT assay result, run 5 / MTT assay result, run 6 / MTT assay result, run 7 / MTT assay result, av (average) / MTT assay result, av-blank / MTT assay result, av: unit not given here; conditions: BXPC3, 50 μM; for MTT assay result, av-blank: average minus blank
Outline: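 Viability measured by MTT assay 48 or 120 hours after one 50 μM treatment with tocol-family compounds, geranylgeraniol, succinic acid or vehicle, with untreated cultures in parallel. BXPC3 cells grown in FBS-supplemented medium, 37° C, humidified 5% CO2.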

MiaPaCa-2 cells = assay: MTT assay of MiaPaCa2 cultures, single 50 μM dose; design: rel amt (relative value set to the control): unit not given here; conditions: MiaPaCa2, 50 μM; for MTT assay result, av-blank: average minus blank; for MTT assay result, av: average of 7 runs
Outline: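 Viability measured by MTT 48 or 120 hours post-treatment, with a vehicle-only (ethanol-extracted olive oil) culture as control. MiaPaCa-2 cultures received one 50 μM exposure to a tocotrienol, tocopherol, tocopherol succinate, geranylgeraniol or succinic acid.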

CC(C)=CCC/C(C)=C/CC/C(C)=C/CC/C(C)=C/CO [GG, geranylgeraniol]
rel amnt (relative value set to the control) ([1]; 24 hours): 92 | MTS assay result, run 1 ([1]; 24 hours): 0.158 | MTS assay result, run 2 ([1]; 24 hours): 0.133 | MTS assay result, run 3 ([1]; 24 hours): 0.133 | MTS assay result, run 4 ([1]; 24 hours): 0.137 | MTS assay result, run 5 ([1]; 24 hours): 0.131 | MTS assay result, run 6 ([1]; 24 hours): 0.14 | MTS assay result, run 7 ([1]; 24 hours): 0.132 | MTS assay result, run 8 ([1]; 24 hours): 0.121 | MTS assay result, run 9 ([1]; 24 hours): 0.136 | rel amnt (relative value set to the control) ([1]; 48 hours): 83 | MTS assay result, run 1 ([1]; 48 hours): 0.078 | MTS assay result, run 2 ([1]; 48 hours): 0.129 | MTS assay result, run 3 ([1]; 48 hours): 0.13 | MTS assay result, run 4 ([1]; 48 hours): 0.128 | MTS assay result, run 5 ([1]; 48 hours): 0.133 | MTS assay result, run 6 ([1]; 48 hours): 0.118 | MTS assay result, run 7 ([1]; 48 hours): 0.14 | MTS assay result, run 8 ([1]; 48 hours): 0.144 | MTS assay result, run 9 ([1]; 48 hours): 0.125 | rel amnt (relative value set to the control) ([1]; 72 hours): 158 | MTS assay result, run 1 ([1]; 72 hours): 0.784 | MTS assay result, run 2 ([1]; 72 hours): 0.713 | MTS assay result, run 3 ([1]; 72 hours): 0.76 | MTS assay result, run 4 ([1]; 72 hours): 0.734 | MTS assay result, run 5 ([1]; 72 hours): 0.682 | MTS assay result, run 6 ([1]; 72 hours): 0.665 | MTS assay result, run 7 ([1]; 72 hours): 0.65 | MTS assay result, run 8 ([1]; 72 hours): 0.627 | MTS assay result, run 9 ([1]; 72 hours): 0.702 | rel amt (relative value set to the control) (BXPC3 cells; 48 hours): 108 | MTT assay result, av-blank (BXPC3 cells; 48 hours): 0.246 | MTT assay result, av (average) (BXPC3 cells; 48 hours, average of 7 runs): 0.295 | MTT assay result, run 1 (BXPC3 cells; 48 hours): 0.308 | MTT assay result, run 2 (BXPC3 cells; 48 hours): 0.272 | MTT assay result, run 3 (BXPC3 cells; 48 hours): 0.299 | MTT assay result, run 4 (BXPC3 cells; 48 hours): 0.291 | MTT assay result, run 5 (BXPC3 cells; 48 hours): 0.299 | MTT assay result, run 6 (BXPC3 cells; 48 hours): 0.3 | MTT assay result, run 7 (BXPC3 cells; 48 hours): 0.294 | rel amt (relative value set to the control) (BXPC3 cells; 120 hours (5 days)): 106 | MTT assay result, av-blank (BXPC3 cells; 120 hours (5 days)): 0.610 | MTT assay result, av (BXPC3 cells; 120 hours (5 days), average of 7 runs): 0.665 | MTT assay result, run 1 (BXPC3 cells; 120 hours (5 days)): 0.621 | MTT assay result, run 2 (BXPC3 cells; 120 hours (5 days)): 0.655 | MTT assay result, run 3 (BXPC3 cells; 120 hours (5 days)): 0.672 | MTT assay result, run 4 (BXPC3 cells; 120 hours (5 days)): 0.663 | MTT assay result, run 5 (BXPC3 cells; 120 hours (5 days)): 0.657 | MTT assay result, run 6 (BXPC3 cells; 120 hours (5 days)): 0.724 | MTT assay result, run 7 (BXPC3 cells; 120 hours (5 days)): 0.66 | rel amt (relative value set to the control) (MiaPaCa-2 cells; 48 hours): 92 | MTT assay result, av-blank (MiaPaCa-2 cells; 48 hours): 0.285 | MTT assay result, av (MiaPaCa-2 cells; 48 hours): 0.331 | MTT assay result, run 1 (MiaPaCa-2 cells; 48 hours): 0.329 | MTT assay result, run 2 (MiaPaCa-2 cells; 48 hours): 0.339 | MTT assay result, run 3 (MiaPaCa-2 cells; 48 hours): 0.321 | MTT assay result, run 4 (MiaPaCa-2 cells; 48 hours): 0.328 | MTT assay result, run 5 (MiaPaCa-2 cells; 48 hours): 0.342 | MTT assay result, run 6 (MiaPaCa-2 cells; 48 hours): 0.317 | MTT assay result, run 7 (MiaPaCa-2 cells; 48 hours): 0.341 | rel amt (relative value set to the control) (MiaPaCa-2 cells; 120 hours (5 days)): 93 | MTT assay result, av-blank (MiaPaCa-2 cells; 120 hours (5 days)): 1.679 | MTT assay result, av (MiaPaCa-2 cells; 120 hours (5 days)): 1.731 | MTT assay result, run 1 (MiaPaCa-2 cells; 120 hours (5 days)): 1.738 | MTT assay result, run 2 (MiaPaCa-2 cells; 120 hours (5 days)): 1.608 | MTT assay result, run 3 (MiaPaCa-2 cells; 120 hours (5 days)): 1.577 | MTT assay result, run 4 (MiaPaCa-2 cells; 120 hours (5 days)): 1.744 | MTT assay result, run 5 (MiaPaCa-2 cells; 120 hours (5 days)): 2.134 | MTT assay result, run 6 (MiaPaCa-2 cells; 120 hours (5 days)): 1.606 | MTT assay result, run 7 (MiaPaCa-2 cells; 120 hours (5 days)): 1.711
